Patent US9878015B2, “Pharmaceutical compositions and methods for the treatment of metastatic cancer” (IMMUNE SYSTEM KEY LTD., priority 2013, dated 2018)
Entries after “also recorded” stand apart in the source; their conditions may differ. Where no end group is shown, it is not given here.

Tests used:
[1] = system: adenocarcinoma pancreatic cancer cells, cell line 2; assay: Radius cell migration assay, cell line 2; format: cell-based, human; conditions: cell line 2, Nerofe 10 μg/ml
Procedure: (§1) Cell Migration Assay of Human Cancer Cell
(§2) Human adenocarcinoma pancreatic cancer cells were grown until reaching 70-80% cell density in the flask and detached from the flask using Trypsin EDTA as described above. Cells suspended in medium and Trypsin were then centrifuged 10 minutes at 300 g (4° C.) and re-suspended in 2 ml fresh medium (as described for the BrdU incorporation assay above).
(§3) The cells were then fluidized and 3 ml medium were added such that the cells were suspended in a volume of 5 ml medium and subsequently counted and diluted to a concentration of 150,000 or 300,000 cells/ml medium.
(§4) Alternatively, Dulbecco's modification of Eagle's medium (DMEM, Biological Industries cat no. 01-055-1A) supplemented with 50 ml FBS (Biological industries cat no. 04-121-1A), 5 ml Hepes 1M (Biological industries cat no. 03-025-1C), 0.5 ml Amphotericin B 2500 μg/ml (Biological industries cat no. 03-029-1) and 5 ml Gentamycin sulfate 50 mg/ml (Biological industries cat no. 03-035-1) was used for cell culturing and re-suspension and the cells were re-suspended to a final concentration of 100,000 cells/ml medium.
(§5) A radius 96-well Cell Migration Assay plate (Cell Biolabs Inc. cat no. CBA-126) was prepared according to the manufacturer's protocol and each well was loaded with 100 μl cells such that each well contained 10,000, 15,000 or 30,000 cells. […]

[2] = system: soluble ST2 (sST2) secreted by human adenocarcinoma pancreatic cancer cells; assay: Soluble ST2 (sST2) ELISA assay, pancreatic cancer cells; format: cell-based; conditions: 1-50 μg/ml peptide; all tested cells; FIG. 2
Procedure: (§6) Soluble ST2 (sST2) ELISA Assay
(§7) Human adenocarcinoma pancreatic cancer cells and human breast cancer cells (MDA-MB-231) were grown until reaching 70-80% cell density in the flask and were detached from the flask using Trypsin EDTA as described above. Cells suspended in medium and Trypsin were then centrifuged and re-suspended in 2 ml fresh medium (as described for the BrdU incorporation assay above).
(§8) The cells were then fluidized and 3 ml medium were added to the cell suspension such that the cells were re-suspended in a total volume of 5 ml medium. The cells were then counted and diluted to a concentration of 50,000 cells/ml medium. Cells at 2 ml per plate were placed in each well of a 6 well plate such that each well contained 100,000 cells. The cells were incubated over-night in 37° C. in the incubator.
(§9) The supernatant was discarded and replaced by 1 ml RPMI medium containing 2.5% FBS. The cells were then incubated for 24 or 48 hours in 37° C. in the presence of the Nerofe peptide at the final concentrations of 1, 10, 25 and 50 μg/ml. […]
(§10) Detecting of sST2 was performed by diluted anti-sST2 Affinity purified antibody (Genmed, project ID 35622 B-Form) 1:100 in diluent (0.05% TW-20, 0.1% BSA in PBS), where 100 μl of the detection antibody was loaded on each well. […] Plate absorbance was performed in a microplate reader at O.D. of 450/590 nm.

[3] = system: soluble ST2 (sST2) in human breast cancer cells (MDA-MB-231); assay: Soluble ST2 (sST2) ELISA assay, breast cancer cells; format: cell-based; conditions: MDA-MB-231, similar assay conditions, data not shown
Procedure: as §6, §7, §8, §9, §10

[4] = system: vascular endothelial growth factor (VEGF); assay: Clinical study: serum level of VEGF in cancer patients (ELISA); format: in vivo, human
Procedure: Therefore a clinical study that follows the serum levels of VEGF was conducted in cancer patients that were administered with the peptide Nerofe. Patients participating in the study were diagnosed with various cancer types, namely colon, colorectal, spindle cell neoplasm, pancreas, small intestine, non small cell lung carcinoma, hepatic carcinoma, colon adenocarcinoma and rectal adenocarcinoma, as summarized in Table 3 below.
Patients were included in at least one of Cohort 1, Cohort 2, Cohort 3 and Cohort 4 and received doses of […] (about 0.16, 0.32, 0.64 or 1.28 mg/kg body weight) of the peptide Nerofe, respectively, at the indicated time points.
Serum levels of VEGF were measured in blood samples obtained form these patients using an Elisa kit for human VEFG (R&D systems) and the results are presented in FIG. 5 (for the patients of Cohort 1 and Cohort 2) and in FIG. 6 (for the patients of Cohort 3 and Cohort 4).

[5] = system: adenocarcinoma pancreatic cancer cells, cell line 1; assay: Radius cell migration assay, cell line 1; format: cell-based, human; conditions: cell line 1, Nerofe 10 μg/ml
Procedure: as §1, §2, §3, §4, §5

[6] = system: human adenocarcinoma pancreatic cancer cells; assay: Cell migration assay after 48 hours pre-incubation with peptide; format: cell-based; conditions: 25 μg/ml peptide for 48 hours before assay; 27 hours vs 1 hour; FIG. 3, FIG. 4
Procedure: as §2, §4
Alternatively, the supernatant was discarded and replaced by 200 μl DMEM containing 2.5% 1-BS and the required treatment, namely control (without Nerofe), 10, 25 or 50 μg/ml Nerofe. The cells were then incubated at 37° C. for 48 hours in an incubator.
When the cells reached 70-80% density, the supernatant was discarded and the gel was removed from the center of the well, without affecting the attachment of cells as described in the manufacturer's protocol. […]

[7] = system: tissue plasminogen activator (TPA) secreted by human adenocarcinoma pancreatic cancer cells; assay: Tissue type plasminogen activator (TPA) human ELISA assay on cell supernatant; format: cell-based; conditions: 1-50 μg/ml peptide, 24 hours; cell line 1, 2 and 3; FIG. 1
Procedure: Tissue Type Plasminogen Activator (TPA) Human ELISA Assay
as §7, with “cells” for “cells and human breast cancer cells (MDA-MB-231)”, “70-80%” for “70-80% cell”, “assay,” for “assay”
The cells were then fluidized and 3 ml medium were added to the cell suspension such that the cells were re-suspended in a total volume of 5 ml medium. Cells were counted and diluted to a concentration of 50,000 cells/ml medium. Next, the cells were placed in each well of a 6 well plate (Nunc cat no. 140675), by placing 2 ml cells culture per well such that each well contains 100,000 cells. The cells were next incubated over-night at 37° C. in the incubator.
The supernatant was discarded and replaced by 1 ml RPMI medium containing 2.5% FBS. Cells were then incubated for 24 hours or 48 hours at 37° C. in the presence of the Nerofe peptide at the final concentrations of 1, 10, 25 and 50 μg/ml. […]
Next, a TPA ELISA assay was performed as follows: the supernatant was thawed and kept on ice, then diluted 1:15 with the TPA diluents provided with the kit (x1N, Abcam cat no. ab108914). The procedure was continued according to the manufacturer's protocol and ELISA plates were read at an optical density (O.D.) of 450/590.

[8] = system: human adenocarcinoma pancreatic cancer cells; assay: Bromodeoxyuridine (BrdU) incorporation assay (cell proliferation); format: cell-based; conditions: 1, 10, 25 and 50 μg/ml peptide vs control; no correlation with concentration
Procedure: Bromodeoxyuridine (BrdU) Incorporation Assay
Human adenocarcinoma pancreatic cancer cells and human breast cancer cells were grown until reaching 70-80% density in the flask and detached from the flask using Trypsin EDTA as described above (the above protocol for cell culturing was used until the step of adding 10 ml medium to the Trypsin-treated cells). The cells suspended in medium and Trypsin were then transferred into a 50 ml conical tube and centrifuged at 300 g (10 min, 4° C.). The supernatant was then discarded and the cell pellet was re-suspended in fresh medium (2 ml medium prepared as described above).
The cells were then fluidized and additional 3 ml medium were added to the cell suspension such that the cells were re-suspended in a total volume of 5 ml medium. The cells were then counted and diluted to a concentration of 20,000 cells/ml medium. Next, the cells were placed in a 96 well plate (Nunc cat no. 167008), placing 100 μl cell suspension per well, such that each well contained 2000 cells. The cells were then incubated over-night in 37° C. in the incubator.
The concentrated Nerofe peptide was suspended in a total volume of 100 μl medium and added to the assayed cells in the 96-well plate to a final concentration of 1, 10, 25 and 50 μg/ml. Control (background) assays were performed in the absence of the peptide, namely, 100 μl medium was added to control cells. […]

[9] = system: various cancer cells of hematopoietic origin; conditions: inhibitory effect defined as at least 40% inhibition vs control; cited from earlier work
tumor = conditions: adult Balb/C mice model; cited from earlier work

In the case of “WWTFFLPSTLWERK [Nerofe, C-terminal 14 all D amino acid fragment of the full T101 peptide, …]”, the “% inhibition of migration” value ([1]; 8 hours) was 82%, the “% Migration after 8 hours” value ([1]; control = 100) was 18% and the “level of sST2 compared to cells not incubated with the peptide” value [2] was “lower levels of sST2; also recorded: dose-dependent”. The “decrease in the level of sST2” value [3] was “about 80%”, the “change of serum level of VEGF” value ([4]; cancer patients, Cohort 1 and Cohort 2, 6 or 12 mg/m^2, FIG. 5) was “increase” and the “decrease of serum level of VEGF” value ([4]; cancer patients, Cohort 3 and Cohort 4, 24 or 48 mg/m^2, FIG. 6) was 30-40%. The “decrease of serum level of VEGF in single patients” value ([4]; patients 13 (small intestine) and 19 (rectal adenocarcinoma)) was “particularly significant”, the “% inhibition of migration” value ([5]; 8 hours) was 30% and the “% Migration after 8 hours” value ([5]; control = 100) was 70%. For the same sequence, the “migration of cells into cell-free area” value [6] was “substantially inhibited”, the “level of secreted TPA compared to control cells” value [7] was “lower levels of secreted TPA” and the “inhibition of BrdU incorporation” value [8] was “up to 26%”. The cell proliferation [9] was “inhibit cell proliferation”.

In the case of “LHLWLSGEPVQSSGTKDMRSKSDSKRVSDKQLISKAVWWTFFLPSTLWERK (isolated synthetic peptide (fragment of T 101 peptide)) [T101 peptide, Full length thymus peptide, devoid of its N-terminal 33 amino acids; 51 amino acids long]”, the tumor size (tumor) is given as “significantly reduce tumor size”.
